Calls of active or inactive are those of the source.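 How the source made its calls: active means half-maximal concentration for the rise in caspase light signal at or below ten times the top tested dose; inconclusive means flat fit between 30% and 70% activity, or unreliable curve fit; inactive means the rest.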
Tested on: MEF A1-2A-BIM cells, caspase 3/7 luminescence, 3 h
Assay: caspase activation in A1-2A-BIM MEF cells, dose response, A1 inhibitor project, cell-based, luminescence, retest (AID 2765)

SMILES	EC50
N#Cc1ccc(S(=O)(=O)N2CCC(N3CCCCC3)CC2)cc1	> 35 µM (inactive)
Cc1cc(C)cc(C(=O)N2CC(=O)Nc3ccccc32)c1	> 35 µM (inactive)
CCCC(=O)Nc1ncnc2c1ncn2[C@@H]1O[C@@H]2OP(=O)(O)OC[C@H]2[C@H]1OC(=O)CCC	> 35 µM (inactive)
CN(C(=O)CSc1nnc(C(F)(F)F)n1N)C1CCS(=O)(=O)C1 (stereo unspecified)	> 35 µM (inactive)
CCCCOC(=O)c1ccc(S(N)(=O)=O)o1	> 35 µM (inactive)
CCOC(=O)c1ccc(-c2ccc(/C=N/NC(=O)CN(c3cccc(C)c3)S(C)(=O)=O)o2)cc1	24 µM
CCc1ccc(Nc2n[n+](-c3ccccc3)c(/C=C/c3ccccc3)s2)cc1	10.9 µM
COC(=O)C1=C(C(=O)OC)[C@@H]2N(C)c3ccc(OC)cc3[C@@]23C[C@@H](C(=O)OC)N(C(=O)c2ccco2)C3=N1	> 35 µM (inactive)
Cc1nc(SCc2nc3c([N+](=O)[O-])cccc3[nH]2)c2oc3ccccc3c2n1	> 35 µM (inactive)
CN(C)c1ccc(S(=O)(=O)N(C)C)cc1[N+](=O)[O-]	> 35 µM (inactive)
Cc1c(CCCC(=O)O)sc(N)c1C(=O)c1cccc(C(F)(F)F)c1	> 35 µM (inactive)
Cc1cc(=O)oc2c(C)c(OCC(=O)N3CCN(C(=O)C4COc5ccccc5O4)CC3)ccc12 (stereo unspecified)	> 35 µM (inactive)
CCS(=O)(=O)Nc1ccc(Cc2ccncc2)cc1	> 35 µM (inactive)
Brc1ccc(CN2CCN(Cc3c[nH]c4ccccc34)CC2)cc1	> 35 µM (inactive)
CCCN1C(=O)C(=O)c2cc(C)ccc21	> 35 µM (inactive)
COC(=O)[C@]1(C)CCC[C@@]2(C)C3CC[C@@]4(C)C[C@]3(CCC21)CC4=NO (stereo partly specified)	> 35 µM (inactive)
CN(Cc1cnc2nc(N)nc(N)c2n1)c1ccc(C(=O)N[C@@H](CCC(=O)O)C(=O)O)cc1	> 35 µM (inactive)
CC(C)C(=O)Nc1cc(S(=O)(=O)N2CCOCC2)ccc1N1CCCCC1	> 35 µM (inactive)

SMILES	EC50
Cc1cccc(C)c1NC(=O)CS(=O)CC(=O)N1CCN(c2ccccc2)CC1 (stereo unspecified)	> 35 µM (inactive)
O=C(C1=NN[C@@H]2C(=O)N(Cc3ccccc3)C(=O)[C@H]12)c1ccc(F)cc1	> 35 µM (inactive)
CCCCn1nc(C)c(C(=O)O)c1Cl	> 35 µM (inactive)
COc1ccc(N2CCN(C(=O)C3CCN(C(=O)c4ccc([N+](=O)[O-])cc4)CC3)CC2)cc1	> 35 µM (inactive)
CS(=O)(=O)Nc1ccc(C2=NN(C(=O)c3cccc(F)c3)C(c3cccs3)C2)cc1 (stereo unspecified)	> 35 µM (inactive)
O=C(COC(=O)c1ccc(CN2CCCC2=O)cc1)Nc1ccc(F)cc1	> 35 µM (inactive)
CCCCNC(=O)c1ccc2nc(-c3ccco3)c(-c3ccco3)nc2c1	> 35 µM (inactive)
O=C(/C=C/N1CCN(Cc2ccccc2)CC1)C(F)(F)F	> 35 µM (inactive)
COC(=O)c1ccc(NC(=O)C2CC(=O)N(c3ccc(C)cc3)C2)cc1 (stereo unspecified)	> 35 µM (inactive)
O=C(Nc1ccc(-c2nc3cc(NC(=O)c4cccs4)ccc3o2)cc1)c1cccs1	> 35 µM (inactive)
O=C(CSc1nc2ncc(Br)cc2[nH]1)c1ccc([N+](=O)[O-])cc1	> 35 µM (inactive)
COc1cc(CN2CCNC(=O)C2CC(=O)N(C)CCCN2CCOCC2)cc(OC)c1 (stereo unspecified)	> 35 µM (inactive)
COc1ccc(OC)c2sc(N(CCCN(C)C)C(=O)c3ccc(S(=O)(=O)N4CCc5ccccc5C4)cc3)nc12	> 35 µM (inactive)
CC(=O)OCCCNc1cc(Sc2nc3ccccc3s2)c2nonc2c1[N+](=O)[O-]	> 35 µM (inactive)
C=C1/C=C(\C)[C@](C)(O)C[C@H](O)CC(=O)[C@H](O)[C@@H](O)[C@H](C)C[C@H](C)OC(=O)/C(C)=C/CC/C=C/[C@@H]2O[C@H]2C[C@H](C)C1	> 35 µM (inactive)
CCN(CC)C(=S)SCC(=O)Nc1ccc(F)cc1	> 35 µM (inactive)
CCOC(=O)C(=Cc1ccc(OCc2ccc([N+](=O)[O-])cc2)c(OC)c1)C(=O)OCC	> 35 µM (inactive)
COc1ccc(C(=O)Sc2ccc(Cl)cc2)cc1OC	> 35 µM (inactive)
